Measurements: patent US5416099A, “Fibrinogen receptor antagonists” (Merck & Co., Inc., priority 1993, dated 1995)

Tested on: Human platelets
Test: ADP-stimulated platelet aggregation assay (gel-filtered human platelets)
Format: cell-based
Conditions: fibrinogen 100 μg/ml, Ca^2+ 1 mM, 10 uM ADP, 37° C., read-out: platelet aggregation inhibition potency, IC50
Procedure: An ADP-stimulated platelet aggregation assay was used to determine inhibition associated with compounds of the invention.
Human platelets were isolated from fresh blood, collected into acid citrate/dextrose by differential centrifugation followed by gel filtration on Sepharose 2B in divalent ion-free Tyrode's buffer (pH 7.4) containing 2% bovine serum albumin. Platelet aggregation was measured at 37° C. in a a Chronolog aggregometer. The reaction mixture contained gel-filtered human platelets (2×10^8 per ml), fibrinogen (100 μg/ml), Ca^2+ (1 mM), and the compound to be tested. Aggregation was initiated by adding 10 uM ADP 1 minute after the other components had been added. The reaction was allowed to proceed for at least 2 minutes. The extent of inhibition of aggregation was expressed as the percentage of the rate of aggregation observed in the absence of inhibitor. The IC50 is the dose of a particular compound inhibiting aggregation by 50% relative to a control lacking the compound.

| Compound | IC50 [µM] |
| --- | --- |
| O=C(O)CNC(=O)c1ccc2c(c1)C(=O)N(CCCC1CCNCC1)C2 | 14 |
| O=C(O)CCNC(=O)c1ccc2c(c1)C(=O)N(CCCC1CCNCC1)C2 | 0.92 |
